From publication PMC4456216 (Nature structural & molecular biology, 2015) come the findings set out here.

In one test the target is CBP KIX domain. The test is described as follows: Isothermal titration calorimetry. Set-up: species or system mouse. Particulars: read-out: Dissociation constant (KD), CBP KIX, ITC, 25°C, 10 mM MES pH 6.5, 50 mM NaCl, CBP KIX titrated into TAD, KD from a representative experiment with standard error for fit to one-site binding model (n = 2 or 3), nd = no detectable binding under experimental conditions. (In general: In ITC the heat of successive injections is recorded.)

A further test addresses CRY1 CC peptide. The test is described as follows: Isothermal titration calorimetry. Set-up: species or system mouse. Particulars: read-out: Dissociation constant (KD), CRY1 CC, ITC, 25°C, 10 mM MES pH 6.5, 50 mM NaCl, CRY1 CC titrated into TAD, KD from a representative experiment with standard error for fit to one-site binding model (n = 2 or 3), nd = no detectable binding under experimental conditions.

The Kd is the concentration at which binding is half-saturated. “BMAL1 619X: BMAL1 TAD truncation mutant that removed the C-terminal seven residues”: the Kd on CBP KIX domain stood at 4.44 ± 0.23 µM; at CRY1 CC peptide, 19.7 ± 2.57 µM.
